What was measured:
[1] = system: MCL-1ΔNΔC; assay: High-throughput competitive FP binding screen, FITC-MCL-1 SAHB/MCL-1ΔNΔC interaction; conditions: selectivity for MCL-1ΔNΔC over BCL-XLΔC targeting (BCL-XL % Bound minus MCL-1 % Bound)
[2] = biological target: MCL-1ΔNΔC (Homo sapiens, UniProt Q07820); assay: as above; set-up: the C-terminal alpha-helix was deleted from each of these constructs; GST (N, cleaved yes); made in house; conditions: FITC-MCL-1 SAHB/MCL-1ΔNΔC interaction pair, competitive FP screen
[3] = biological target: BCL-XLΔC (Homo sapiens, UniProt Q07817); assay: High-throughput competitive FP binding screen, FITC-BAD BH3/BCL-XLΔC interaction; conditions: FITC-BAD BH3/BCL-XLΔC interaction pair, competitive FP screen
BCL-XLΔC, sequence (Q07817 1-212 limits assumed, stated change not applied): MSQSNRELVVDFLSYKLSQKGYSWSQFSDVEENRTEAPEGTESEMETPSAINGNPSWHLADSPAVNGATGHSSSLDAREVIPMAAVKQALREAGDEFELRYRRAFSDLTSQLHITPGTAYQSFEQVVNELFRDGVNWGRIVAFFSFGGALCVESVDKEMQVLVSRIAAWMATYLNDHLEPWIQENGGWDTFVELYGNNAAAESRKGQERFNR

MCL-1ΔNΔC (Homo sapiens, UniProt Q07820), sequence (Q07820 172-320 limits assumed, stated change not applied): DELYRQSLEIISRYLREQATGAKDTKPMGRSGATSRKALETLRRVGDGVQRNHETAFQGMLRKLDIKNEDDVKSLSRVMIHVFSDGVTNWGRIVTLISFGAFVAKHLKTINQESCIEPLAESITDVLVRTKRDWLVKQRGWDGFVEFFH

| SMILES | Spec Values [1] | MCL-1% Bound [2] | BCL-XL % Bound [3] |
| --- | --- | --- | --- |
| Cc1conc1NC(c1cccs1)c1ccc2cccnc2c1O (stereo not drawn) | 45.42 | 58.33% | 103.8% |
| CC(C)Cn1c2ccc(Cl)cc2c2nc3ccccc3nc21 | 57.12 | 32.32% | 89.44% |
| c1cc(CNc2ccc(N3CCCC3)cc2)ccn1 | 56.89 | 38.73% | 95.63% |
| COc1ccc(C2=CC(=O)C=CC2=O)cc1 | 56.64 | 35.4% | 92.03% |
| Oc1ccc(NCc2ccc(Br)cc2)cc1 | 56.32 | 34.63% | 90.95% |
| CCN(CC)S(=O)(=O)c1ccc(-c2ccc(/C=N/N=C3\NC(=O)C(CC(=O)Nc4ccccc4)S3)o2)cc1 (stereo not drawn) | 56.3 | 44.37% | 100.7% |
| O=C1CSCC(=O)N1c1cc(C(F)(F)F)cc(C(F)(F)F)c1 | 56.05 | 45.62% | 101.7% |
| O=C1C=CC(=O)N1CCc1ccc(Cl)cc1 | 55.93 | 41.14% | 97.07% |
| N#C/C(=C\C=C\c1ccco1)C(N)=S | 55.72 | 7.822% | 63.54% |
| O=C1C=CC(=O)C(Sc2nnnn2-c2ccccc2)=C1 | 55.69 | 45.56% | 101.3% |
| Cc1ccc2n1CCn1cc(-c3ccc(Br)cc3)cc1-2 | 55.6 | 43.77% | 99.37% |
| O=C(CSc1ncc(C(F)(F)F)cc1Cl)NC(=O)CN1CCCC1=O | 55.6 | 43.37% | 98.97% |
| N#CC(C#N)=C(C#N)c1ccc(-c2ccccc2)[nH]1 | 55.59 | 35.11% | 90.7% |
| c1ccc2c(c1)nc(Nc1ccc(N3CCCCC3)cc1)c1nncn12 | 55.41 | 35.03% | 90.45% |
| C/C(=N\OCc1ccc(C(=O)N2CCCCC2)o1)c1cccc(C(F)(F)F)c1 | 55.34 | 55.48% | 110.8% |
| CCOc1ccc2c(c1)C(C)=CC(C)(C)N2C(=O)CSc1nnc(C2CC2)n1C | 55.24 | 40.13% | 95.37% |
| CCc1ccc2c(c1)C1(NN=C(c3ccccc3)S1)C(=O)N2 (stereo not drawn) | 55.23 | 44.19% | 99.43% |
| Cc1cccc(NC(=O)CSc2nncc(=O)[nH]2)c1 | 55 | 27.28% | 82.27% |
| Cc1ccc(C)n1Cc1ccc(C(=O)O)cc1 | 54.85 | 36.6% | 91.45% |
| CC(C)CNC(=O)CCc1nc(-c2ccccc2)no1 | 54.73 | 37.48% | 92.21% |
| Fc1ccccc1OCCSc1nnc2c(n1)[nH]c1ccccc12 | 54.35 | 45.2% | 99.56% |

Reference: patent US20150315211A1, “SMALL MOLECULES FOR THE MODULATION OF MCL-1 AND METHODS OF MODULATING CELL DEATH, CELL DIVISION, CELL DIFFERENTIATION AND METHODS OF TREATING DISORDERS” (priority 2010, published 2015)
